The experiment concerns the target JAK1 (Homo sapiens (Human), UniProt P23458). Nature of the experiment: Analysis of JAK1 activity inhibition ability (ADP-Glo Kinase Assay). In kind it is biochemical. Conditions: JAK1 enzyme, ADP-Glo luminescence, ATP 250 uM, IRS-itide substrate, 30° C. 40 minutes; read-out: IC50. The method, boiled down:
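JAK1 enzyme, IRS-itide substrate (40 ng/mL) and 250 uM ATP, both as prepared in kinase buffer (Tris-HCl pH 7.5, MgCl2, BSA, DTT), reacted with compound 40 min at 30 °C. ADP formed was detected by ADP-Glo luminescence; IC50 is the concentration giving 50% inhibition versus control.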

The results in this text go back to US11524968B2, “Heterocyclic compound as a protein kinase inhibitor” (HK inno.N Corporation, priority 2017, dated 2022).

pIC50: −log10 of the molar value.

One may read the pIC50 as −log10 of the IC50, conventionally taken in molar units.

Sequence of JAK1 (P23458 whole entry): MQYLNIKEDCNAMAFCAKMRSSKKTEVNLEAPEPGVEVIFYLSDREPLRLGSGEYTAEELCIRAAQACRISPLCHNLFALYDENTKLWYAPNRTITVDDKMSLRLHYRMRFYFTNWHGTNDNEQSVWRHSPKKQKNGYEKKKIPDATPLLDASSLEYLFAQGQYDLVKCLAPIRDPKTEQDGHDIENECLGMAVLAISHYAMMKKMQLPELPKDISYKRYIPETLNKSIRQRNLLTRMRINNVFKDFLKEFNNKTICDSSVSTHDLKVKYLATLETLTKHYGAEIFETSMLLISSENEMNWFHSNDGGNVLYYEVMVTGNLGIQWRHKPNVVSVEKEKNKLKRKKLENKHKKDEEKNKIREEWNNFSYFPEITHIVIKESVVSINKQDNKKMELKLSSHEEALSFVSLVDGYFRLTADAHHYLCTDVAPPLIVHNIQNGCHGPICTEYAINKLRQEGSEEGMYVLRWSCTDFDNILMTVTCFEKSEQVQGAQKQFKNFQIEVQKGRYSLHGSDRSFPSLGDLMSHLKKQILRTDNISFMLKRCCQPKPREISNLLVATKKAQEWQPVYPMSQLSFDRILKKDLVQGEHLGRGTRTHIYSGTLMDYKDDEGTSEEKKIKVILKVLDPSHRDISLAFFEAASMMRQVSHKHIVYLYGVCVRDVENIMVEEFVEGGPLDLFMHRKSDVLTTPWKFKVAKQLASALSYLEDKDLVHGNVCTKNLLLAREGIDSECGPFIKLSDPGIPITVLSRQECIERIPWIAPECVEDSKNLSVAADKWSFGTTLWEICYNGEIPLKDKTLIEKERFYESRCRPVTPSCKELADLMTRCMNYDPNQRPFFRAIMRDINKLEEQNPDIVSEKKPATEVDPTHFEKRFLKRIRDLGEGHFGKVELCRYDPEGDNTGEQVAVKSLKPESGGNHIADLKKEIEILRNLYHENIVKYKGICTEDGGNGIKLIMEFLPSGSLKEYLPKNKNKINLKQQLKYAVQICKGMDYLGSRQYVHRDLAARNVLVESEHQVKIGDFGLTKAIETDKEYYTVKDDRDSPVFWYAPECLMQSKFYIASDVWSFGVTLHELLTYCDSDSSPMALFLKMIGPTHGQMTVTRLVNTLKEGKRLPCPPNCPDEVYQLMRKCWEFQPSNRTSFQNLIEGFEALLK

For the compound `CC1CN(C(=O)c2ccc(NCCN3CCOCC3)c(F)c2)CC=C1c1cc(NC(=O)C2CC2)nc2[nH]ccc12` (centres unmarked) [Example 323, N-(4-(1-(3-fluoro-4-((2-morpholinoethyl)amino)benzoyl)-3-methyl-1,2,3,6-tetrahydropyridin-4-yl)-1H-pyrrolo[2,3-b]pyridin-6-yl)cyclopropanecarboxamide], the pIC50 is less than 6.70.
Consider `CC1CN(C(=O)c2cncc(Br)c2)CC=C1c1cc(NC(=O)C2CC2)nc2[nH]ccc12` (centres unmarked) [Example 324, N-(4-(1-(5-bromonicotinoyl)-3-methyl-1,2,3,6-tetrahydropyridin-4-yl)-1H-pyrrolo[2,3-b]pyridin-6-yl)cyclopropanecarboxamide], for which the negative logarithm of the IC50 (pIC50) is 6.70 to 7.70.
Consider `CC1CN(C(=O)c2ccc3c(c2)OCCO3)CC=C1c1cc(NC(=O)C2CC2)nc2[nH]ccc12` (centres unmarked) [Example 325, N-(4-(1-(2,3-dihydrobenzo[b][1,4]dioxine-6-carbonyl)-3-methyl-1,2,3,6-tetrahydropyridin-4-yl)-1H-pyrrolo[2,3-b]pyridin-6-yl)cyclopropanecarboxamide], for which the negative logarithm of the IC50 (pIC50) was 6.70 to 7.70.
Consider `CC1CN(C(=O)c2ccc3c(c2)OCO3)CC=C1c1cc(NC(=O)C2CC2)nc2[nH]ccc12` (centres unmarked) [Example 326, N-(4-(1-(benzo[d][1,3]dioxole-5-carbonyl)-3-methyl-1,2,3,6-tetrahydropyridin-4-yl)-1H-pyrrolo[2,3-b]pyridin-6-yl)cyclopropanecarboxamide], for which the pIC50 was 6.70 to 7.70.
To `CC1CN(C(=O)c2ccc3cc[nH]c3c2)CC=C1c1cc(NC(=O)C2CC2)nc2[nH]ccc12` (centres unmarked) [Example 327, N-(4-(1-(1H-indole-6-carbonyl)-3-methyl-1,2,3,6-tetrahydropyridin-4-yl)-1H-pyrrolo[2,3-b]pyridin-6-yl)cyclopropanecarboxamide] belongs 6.70 to 7.70.
In the case of `CC1CN(C(=O)c2ccnc3[nH]ccc23)CC=C1c1cc(NC(=O)C2CC2)nc2[nH]ccc12` (centres unmarked) [Example 328, N-(4-(3-methyl-1-(1H-pyrrolo[2,3-b]pyridine-4-carbonyl)-1,2,3,6-tetrahydropyridin-4-yl)-1H-pyrrolo[2,3-b]pyridin-6-yl)cyclopropanecarboxamide], the pIC50 was 6.70 to 7.70.
In the case of `COc1ccc(C(=O)N2CC=C(c3cc(NC(=O)C4CC4)nc4[nH]ccc34)C(C)C2)cc1OC` (centres unmarked) [Example 329, N-(4-(1-(3,4-dimethoxybenzoyl)-3-methyl-1,2,3,6-tetrahydropyridin-4-yl)-1H-pyrrolo[2,3-b]pyridin-6-yl)cyclopropanecarboxamide], the pIC50 was 6.70 to 7.70.
On to `COc1cccc(C(=O)N2CC=C(c3cc(NC(=O)C4CC4)nc4[nH]ccc34)C(C)C2)c1` (centres unmarked) [Example 330, N-(4-(1-(3-methoxybenzoyl)-3-methyl-1,2,3,6-tetrahydropyridin-4-yl)-1H-pyrrolo[2,3-b]pyridin-6-yl)cyclopropanecarboxamide], for which the negative logarithm of the IC50 (pIC50) is 6.70 to 7.70.
In the case of `CC1CN(C(=O)c2ccc([N+](=O)[O-])cc2)CC=C1c1cc(NC(=O)C2CC2)nc2[nH]ccc12` (centres unmarked) [Example 331, N-(4-(3-methyl-1-(4-nitrobenzoyl)-1,2,3,6-tetrahydropyridin-4-yl)-1H-pyrrolo[2,3-b]pyridin-6-yl)cyclopropanecarboxamide], the pIC50 is 6.70 to 7.70.
As to `CC(=O)c1cccc(C(=O)N2CC=C(c3cc(NC(=O)C4CC4)nc4[nH]ccc34)C(C)C2)c1` (centres unmarked) [Example 332, N-(4-(1-(3-acetylbenzoyl)-3-methyl-1,2,3,6-tetrahydropyridin-4-yl)-1H-pyrrolo[2,3-b]pyridin-6-yl)cyclopropanecarboxamide], the pIC50 is less than 6.70.
As for `CC1CN(C(=O)c2ccc(Cl)cc2)CC=C1c1cc(NC(=O)C2CC2)nc2[nH]ccc12` (centres unmarked) [Example 333, N-(4-(1-(4-chlorobenzoyl)-3-methyl-1,2,3,6-tetrahydropyridin-4-yl)-1H-pyrrolo[2,3-b]pyridin-6-yl)cyclopropanecarboxamide], the negative logarithm of the IC50 (pIC50) is 6.70 to 7.70.
Turning to `CC1CN(C(=O)c2cccc(Br)c2)CC=C1c1cc(NC(=O)C2CC2)nc2[nH]ccc12` (centres unmarked) [Example 334, N-(4-(1-(3-bromobenzoyl)-3-methyl-1,2,3,6-tetrahydropyridin-4-yl)-1H-pyrrolo[2,3-b]pyridin-6-yl)cyclopropanecarboxamide], the pIC50 was 6.70 to 7.70.
As for `CC1CN(C(=O)c2ccc(Cl)nc2)CC=C1c1cc(NC(=O)C2CC2)nc2[nH]ccc12` (centres unmarked) [Example 335, N-(4-(1-(6-chloronicotinoyl)-3-methyl-1,2,3,6-tetrahydropyridin-4-yl)-1H-pyrrolo[2,3-b]pyridin-6-yl)cyclopropanecarboxamide], the pIC50 is 6.70 to 7.70.
As for `CC1CN(C(=O)c2ccncc2)CC=C1c1cc(NC(=O)C2CC2)nc2[nH]ccc12` (centres unmarked) [Example 336, N-(4-(1-isonicotinoyl-3-methyl-1,2,3,6-tetrahydropyridin-4-yl)-1H-pyrrolo[2,3-b]pyridin-6-yl)cyclopropanecarboxamide], the negative-log IC50 (pIC50) was 6.70 to 7.70.
Take `CC1CN(C(=O)c2cccc(Br)n2)CC=C1c1cc(NC(=O)C2CC2)nc2[nH]ccc12` (centres unmarked) [Example 337, N-(4-(1-(6-bromopicolinoyl)-3-methyl-1,2,3,6-tetrahydropyridin-4-yl)-1H-pyrrolo[2,3-b]pyridin-6-yl)cyclopropanecarboxamide]: the pIC50 was 6.70 to 7.70.
The figure for `CC(Br)CC(=O)N1CC=C(c2cc(NC(=O)C3CC3)nc3[nH]ccc23)C(C)C1` (centres unmarked) [Example 338, N-(4-(1-(3-bromobutanoyl)-3-methyl-1,2,3,6-tetrahydropyridin-4-yl)-1H-pyrrolo[2,3-b]pyridin-6-yl)cyclopropanecarboxamide] is 6.70 to 7.70; for `CC1CN(C(=O)/C=C/CCBr)CC=C1c1cc(NC(=O)C2CC2)nc2[nH]ccc12` (centres unmarked) [Example 339, (E)-N-(4-(1-(5-bromopent-2-enoyl)-3-methyl-1,2,3,6-tetrahydropyridin-4-yl)-1H-pyrrolo[2,3-b]pyridin-6-yl)cyclopropanecarboxamide] it is 6.70 to 7.70.
With `CC1CN(C(=O)CC2CCCC2)CC=C1c1cc(NC(=O)C2CC2)nc2[nH]ccc12` (centres unmarked) [Example 340, N-(4-(1-(2-cyclopentylacetyl)-3-methyl-1,2,3,6-tetrahydropyridin-4-yl)-1H-pyrrolo[2,3-b]pyridin-6-yl)cyclopropanecarboxamide], the negative logarithm of the IC50 (pIC50) was 6.70 to 7.70.
With `COc1ccc(CC(=O)N2CC=C(c3cc(NC(=O)C4CC4)nc4[nH]ccc34)C(C)C2)cc1` (centres unmarked) [Example 341, N-(4-(1-(2-(4-methoxyphenyl)acetyl)-3-methyl-1,2,3,6-tetrahydropyridin-4-yl)-1H-pyrrolo[2,3-b]pyridin-6-yl)cyclopropanecarboxamide], the pIC50 was less than 6.70.
For the compound `Cc1ccsc1C(=O)N1CC=C(c2cc(NC(=O)C3CC3)nc3[nH]ccc23)C(C)C1` (centres unmarked) [Example 342, N-(4-(3-methyl-1-(3-methylthiophene-2-carbonyl)-1,2,3,6-tetrahydropyridin-4-yl)-1H-pyrrolo[2,3-b]pyridin-6-yl)cyclopropanecarboxamide], the pIC50 is 6.70 to 7.70.
Take `CC1CN(C(=O)c2cnccn2)CC=C1c1cc(NC(=O)C2CC2)nc2[nH]ccc12` (centres unmarked) [Example 343, N-(4-(3-methyl-1-(pyrazine-2-carbonyl)-1,2,3,6-tetrahydropyridin-4-yl)-1H-pyrrolo[2,3-b]pyridin-6-yl)cyclopropanecarboxamide]: the negative-log IC50 (pIC50) is 6.70 to 7.70.
Consider `Cc1cnc(C(=O)N2CC=C(c3cc(NC(=O)C4CC4)nc4[nH]ccc34)C(C)C2)cn1` (centres unmarked) [Example 344, N-(4-(3-methyl-1-(5-methylpyrazine-2-carbonyl)-1,2,3,6-tetrahydropyridin-4-yl)-1H-pyrrolo[2,3-b]pyridin-6-yl)cyclopropanecarboxamide], for which the pIC50 is less than 6.70.
Turning to `CC1CN(C(=O)Cc2cccs2)CC=C1c1cc(NC(=O)C2CC2)nc2[nH]ccc12` (centres unmarked) [Example 345, N-(4-(3-methyl-1-(2-(thiophen-2-yl)acetyl)-1,2,3,6-tetrahydropyridin-4-yl)-1H-pyrrolo[2,3-b]pyridin-6-yl)cyclopropanecarboxamide], the negative logarithm of the IC50 (pIC50) is 6.70 to 7.70.
As to `CC1CN(C(=O)Cc2cccc(F)c2)CC=C1c1cc(NC(=O)C2CC2)nc2[nH]ccc12` (centres unmarked) [Example 346, N-(4-(1-(2-(3-fluorophenyl)acetyl)-3-methyl-1,2,3,6-tetrahydropyridin-4-yl)-1H-pyrrolo[2,3-b]pyridin-6-yl)cyclopropanecarboxamide], the pIC50 was 6.70 to 7.70.
With `CC1CN(C(=O)Cc2cccc(Br)c2)CC=C1c1cc(NC(=O)C2CC2)nc2[nH]ccc12` (centres unmarked) [Example 347, N-(4-(1-(2-(3-bromophenyl)acetyl)-3-methyl-1,2,3,6-tetrahydropyridin-4-yl)-1H-pyrrolo[2,3-b]pyridin-6-yl)cyclopropanecarboxamide], the pIC50 is 6.70 to 7.70.
For the compound `CC1CN(C(=O)CCl)CC=C1c1cc(NC(=O)C2CC2)nc2[nH]ccc12` (centres unmarked) [Example 348, N-(4-(1-(2-chloroacetyl)-3-methyl-1,2,3,6-tetrahydropyridin-4-yl)-1H-pyrrolo[2,3-b]pyridin-6-yl)cyclopropanecarboxamide], the pIC50 is 6.70 to 7.70.
Turning to `CC1CN(C(=O)c2cccnc2Cl)CC=C1c1cc(NC(=O)C2CC2)nc2[nH]ccc12` (centres unmarked) [Example 349, N-(4-(1-(2-chloronicotinoyl)-3-methyl-1,2,3,6-tetrahydropyridin-4-yl)-1H-pyrrolo[2,3-b]pyridin-6-yl)cyclopropanecarboxamide], the pIC50 is 6.70 to 7.70.
As to `CC1CN(C(=O)c2ccc(O)cc2)CC=C1c1cc(NC(=O)C2CC2)nc2[nH]ccc12` (centres unmarked) [Example 350, N-(4-(1-(4-hydroxybenzoyl)-3-methyl-1,2,3,6-tetrahydropyridin-4-yl)-1H-pyrrolo[2,3-b]pyridin-6-yl)cyclopropanecarboxamide], the negative-log IC50 (pIC50) is 6.70 to 7.70.
To `CC1CN(C(=O)c2cc3ccccc3o2)CC=C1c1cc(NC(=O)C2CC2)nc2[nH]ccc12` (centres unmarked) [Example 352, N-(4-(1-(benzofuran-2-carbonyl)-3-methyl-1,2,3,6-tetrahydropyridin-4-yl)-1H-pyrrolo[2,3-b]pyridin-6-yl)cyclopropanecarboxamide] belongs 6.70 to 7.70.
